Legend:
[1] = tested on: Hydrilla PDS Arg^304 → Alanine; experiment: Fluridone enzyme inhibition assay, non-His-tagged PDS (Table 1); format: biochemical, Hydrilla verticillata; conditions: relative to Arginine
Procedure: (§1) The expression constructs in Table 1 were derived from an original clone of the susceptible PDS gene from Hydrilla and then the Arg^304 was mutated to the listed amino acid. Expression was under the control of the lac promoter […] with the initiation codon of the LacZalpha-ccdB gene in the pCR4-TOPO vector (Invitrogen Inc., CA, Cat. #K4575-01).
(§2) All mutagenesis was performed, unless stated otherwise, using the TOPO-vector containing the wildtype (H4) PDS-sequence, which was extracted from an overnight culture with the Qiagen Plasmid Prep Kit as described above. The amount of the extracted plasmid was diluted to 10 ng/μl and used as template in a mutagenesis-procedure using the QuikChange Site-directed Mutagenesis Kit (Stratagene, Calif., #200518). The design of the mutagenesis-primers was conducted according to the manufacturers protocol to enable the specific change of Arg^304-codon to code for the desired amino acid. Primers (purchased from MWG-Biotech) and their introduced amino acid change are listed below with the changed codon underlined:
(§3) The reactions were performed according to the manufacturers protocol. Reactions were set up in MicroAmp-tubes on ice with 38 μl ddH2O, 5 μl 10× reaction buffer, 2 μl plasmid (10 ng/μl), 1.25 μl forward-mutagenesis primer (100 ng/μl), 1.25 μl of reverse mutagenesis primer (100 ng/μl), 1 μl dNTP-mix and 1 μl PfuTurboDNA polymerase (2.5 U/μl). The reactions were placed in a PE 9700 thermal cycler and heated to 95° C. for 30 sec followed by 12 rounds at 95° C. for 30 sec, 55° C. for 1 min and 68° C. for 12 min. The PCR was followed by a DpnI-digestion and transformation in XL1-Blue supercompetent cells as described in the manual. 4-6 resulting colonies were grown overnight in LB-medium with kanamycin and plasmid DNA was isolated as described above. The plasmid was used as template for sequencing with M13 and internal PDS-primers as described above on a LiCOR-system. Sequences were assembled and analyzed using Seqman. Introduced mutations were identified and plasmids carrying the desired mutation(s) were transferred into competent TOP10-cells, using the transformation protocol from the TOPO TA Cloning Kit. Resulting colonies were grown overnight in Wu-broth with kanamycin, aliquoted and stored at −80° C. until further use. 1 ml of Wu-cultures was used to start 1-L LB-cultures with kanamycin as described before, to express active PDS-enzyme for testing as described.
(§4) Phytoene desaturase activity and its inhibition by herbicides was determined using an in vitro system using components derived from the in vivo production of phytoene and phytoene desaturase proteins. All mutations described in Examples 3 and 4 were tested. […] The clones were used for the heterologous expression of Hydrilla-PDS-enzyme. In particular, bacterial cultures were grown from single colonies overnight in Wu-broth (6.27 g/L K2HPO4, 1.8 g/L KH2PO4, 0.5 g/L Na-citrate, 0.9 g/L (NH4)2SO4, 10 g/L tryptone, 5 g/L yeast extract, 10 g/L NaCl, 44 ml/L glycerol, 0.1 mM MgSO4, pH 7.2) with kanamycin. 1-mL was aliquoted in centrifuge tube and stored at −80° C. For expression, 1 L LB-medium with kanamycin was inoculated with 1-mL Wu-culture and grown for 24 h at 37° C. to stationary phase with shaking at 200 rpm. The cells were collected by centrifugation at 2000×g. All of the following steps were done at 4° C. unless otherwise noted. Active soluble PDS enzyme was extracted by lysing the transformed E. coli cells using a French Press at 20,000 psi in assay buffer consisting of 100 mM Tris-HCl, pH 7.2, 10 mM magnesium-chloride, 0.1 mM NADP, 0.1 mM FAD, 10 mM cysteine, 5 mM DTT, 1 mM aminocaproic acid, and 1 μg/ml leupeptin. The soluble fraction containing PDS activity was obtained by centrifugation for 10 min at 1200×g. After 24 h they were centrifuged down and used in PDS enzyme activity assays as described below.

[2] = tested on: Hydrilla PDS Arg^304 → Asparagine; experiment: as above; format: biochemical, Hydrilla verticillata; conditions: relative to Arginine
Procedure: as §1, §2, §3, §4

[3] = tested on: Hydrilla PDS Arg^304 → Aspartic acid; experiment: as above; format: biochemical, Hydrilla verticillata; conditions: relative to Arginine
Procedure: as §1, §2, §3, §4

[4] = tested on: Hydrilla PDS Arg^304 → Glutamic acid; experiment: as above; format: biochemical, Hydrilla verticillata; conditions: relative to Arginine
Procedure: as §1, §2, §3, §4

[5] = tested on: Hydrilla PDS Arg^304 → Glutamine; experiment: as above; format: biochemical, Hydrilla verticillata; conditions: relative to Arginine
Procedure: as §1, §2, §3, §4

[6] = tested on: Hydrilla PDS Arg^304 → Glycine; experiment: as above; format: biochemical, Hydrilla verticillata; conditions: relative to Arginine
Procedure: as §1, §2, §3, §4

[7] = tested on: Hydrilla PDS Arg^304 → Isoleucine; experiment: as above; format: biochemical, Hydrilla verticillata; conditions: relative to Arginine
Procedure: as §1, §2, §3, §4

[8] = tested on: Hydrilla PDS Arg^304 → Lysine; experiment: as above; format: biochemical, Hydrilla verticillata; conditions: relative to Arginine
Procedure: as §1, §2, §3, §4

[9] = tested on: Hydrilla PDS Arg^304 → Methionine; experiment: as above; format: biochemical, Hydrilla verticillata; conditions: relative to Arginine
Procedure: as §1, §2, §3, §4

[10] = tested on: Hydrilla PDS Arg^304 → Phenyalanine; experiment: as above; format: biochemical, Hydrilla verticillata; conditions: relative to Arginine
Procedure: as §1, §2, §3, §4

[11] = tested on: Hydrilla PDS Arg^304 → Tyrosine; experiment: as above; format: biochemical, Hydrilla verticillata; conditions: relative to Arginine
Procedure: as §1, §2, §3, §4

[12] = tested on: Hydrilla PDS Arg^304 → Valine; experiment: as above; format: biochemical, Hydrilla verticillata; conditions: relative to Arginine
Procedure: as §1, §2, §3, §4

[13] = molecular target: T1, maize PDS Arg→His at position 292 (Zea mays, UniProt P49086, R292H); experiment: Mutant maize PDS enzyme resistance test; format: biochemical
T1 construct: vector-encoded N-terminal residues of pBluescript SK+ (in-frame fusion); made in house; host or cells: E. coli TOP10 (clone pMPDS3-33 from E. T. Wurtzel, mutagenised in house)
T1 sequence (P49086 97-571 R292H): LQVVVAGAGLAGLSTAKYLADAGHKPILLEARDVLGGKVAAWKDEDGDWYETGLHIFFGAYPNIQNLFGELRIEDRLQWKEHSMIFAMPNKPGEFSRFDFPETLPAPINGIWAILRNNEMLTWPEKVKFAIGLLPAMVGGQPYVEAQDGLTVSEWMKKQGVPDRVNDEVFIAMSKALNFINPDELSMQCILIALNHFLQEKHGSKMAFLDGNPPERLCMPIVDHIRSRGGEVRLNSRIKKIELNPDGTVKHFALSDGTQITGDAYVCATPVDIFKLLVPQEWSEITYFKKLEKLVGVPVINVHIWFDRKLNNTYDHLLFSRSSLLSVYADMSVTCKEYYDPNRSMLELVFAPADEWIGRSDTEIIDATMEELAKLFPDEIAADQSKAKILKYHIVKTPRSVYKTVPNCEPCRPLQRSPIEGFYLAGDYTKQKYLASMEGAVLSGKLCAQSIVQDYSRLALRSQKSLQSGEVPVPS
Excerpt: The same mutagenesis procedure as described in the Examples above was used to convert the same key arginine amino acid (position 292, sequence ID No. 6) to histidine in corn PDS. Mutagenesis primers are listed below. A maize cDNA clone of PDS, that actively expressed PDS (basically sequence U37285 ligated in frame into pBluescript SK^+ and cloned in TOP10-cells) was provided by Eleanore T. Wurtzel, N Y (pMPDS3-33 as described in Z H Li, P D Matthews, B Burr & E T Wurtzel: Cloning and characterization of a maize cDNA encoding phytoene desaturase, an enzyme of the carotenoid biosynthetic pathway. Plant Molecular Biology 30: 269-279, 1996).
The resulting mutant maize PDS polynucleotide and protein were tested generally as described in Example 5 above. The mutant maize PDS enzyme ehxibited 50-fold to 60-fold resistance factor as compared to the wild type maize PDS enzyme.

Fluridone
R/S [1]: 22.5
R/S [2]: 3.2
R/S [3]: 10
R/S [4]: 1.5
R/S [5]: 19
R/S [6]: 3.2
R/S [7]: 10
R/S [8]: 5
R/S [9]: 11.5
R/S [10]: 2.6
R/S [11]: 4
R/S [12]: 11
resistance of modified maize PDS enzyme vs wild-type maize PDS enzyme [13]: substantially more resistant
